Laboratory results reported in US8722849B2, “Polypeptides” (Novo Nordisk A/S, priority 2011, dated 2014).
Starred links: 1 amine or outer side, 2 acyl side, 3 side chain; linkers in the order of their positions; H or OH if unused. Positions of bridges follow the written chain, without caps; N, C: chain ends. Residues, ends and D or L forms follow the SMILES beside them. *: point of attachment. C20 diacid = O=C(O)CCCCCCCCCCCCCCCCCCC(=O)*; γGlu = O=C(O)[C@H](CCC(=O)[*:2])N[*:1]

Legend:
food intake = assay: Assay (I) efficacy testing on appetite (food intake), ad libitum fed rat model; assay type: in vivo, Sprague Dawley (SD) rats
From the text: In the following examples reference is made to the following Assays: • Assay (I)— Experimental protocol for efficacy testing on appetite using an ad libitum fed rat model • ASSAY (II)a—Functional assay—Human calcitonin and amylin receptor assay • ASSAY (II)b—Functional assay—Rat calcitonin and rat amylin receptor assays • ASSAY (III)—ThT fibrillation assays for the assessment of physical stability of protein formulations • ASSAY (IV)—Determination of solubility • ASSAY (V)—Determination of binding to the human amylin receptor • ASSAY (VI)—Determination of the binding to the rat amylin receptor • ASSAY (VII)—Determination of binding to the human calcitonin receptor • ASSAY (VIII)—Determination of binding to the rat calcitonin receptor • ASSAY (IX)—pK—Determination of T % in mini-pig • ASSAY (X)—pK—Determination of T % in rat ASSAY (I)—Experimental Protocol for Efficacy Testing on Appetite Using an Ad Libitum Fed Rat Model
Sprague Dawley (SD) rats from Taconic Europe, Denmark are used for the experiments. The rats have a body weight 200-250 g at the start of experiment. The rats arrive at least 10-14 days before start of experiment to allow acclimatization to experimental settings. During this period the animals are handled at least 2 times. After arrival rats are housed individually for one week in a reversed light/dark phase (meaning that lights are off during daytime and on during nighttime) […]. Since rats are normally active and eat their major part of their daily food intake during the dark period, rats are dosed in the morning right before lights are turned off. This set-up results in the lowest data variation and highest test sensitivity. The experiment is conducted in the rats' home cages and rats have free access to food and water throughout the acclimatization period and the experiment period. Each dose of derivative is tested in a group of 5-8 rats. A vehicle group of 6-8 rats is included in each set of testing. Rats are dosed once according to body weight with a 0.01-3 mg/kg solution administered intraperitoneally (ip), orally (po) or subcutaneously (sc). The time of dosing is recorded for each group. After dosing, the rats are returned to their home cages, where they then have access to food and water. The food consumption is recorded individually continuously by on-line registration or manually every hour for 7 hours, and then after 24 h and sometimes 48 h. At the end of the experimental session, the animals are euthanised.
The individual data are recorded in Microsoft excel sheets. Outliers are excluded after applying the Grubbs statistical evaluation test for outliers, and the result is presented graphically using the GraphPad Prism program.

[1] = Assay (III) ThT fibrillation assay for physical stability; assay type: physicochemical
How it was run: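 Freshly prepared formulations, pH-adjusted, with 1 μM ThT; four or eight replicates incubated at 37 °C under 960 rpm orbital shaking. Fluorescence (ex 444/em 485 nm) read every 20 min; […]. Peptide concentration measured by RP-HPLC before and after the run.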

ThT pH 4.0 lag time ([1]; ThT fibrillation assay) [h] | ThT pH 4.0 lag time (h) ([1]; ThT fibrillation assay) | ThT pH 4.0 lag time ([1]; Table 8) [h] | ThT pH 4.0 lag time ([1]; Table 9) [h] | SMILES | Food intake reduction 0-24 h 3 nmol/kg (%) (food intake; 0-24 h) | Food intake reduction 0-24 h 30 nmol/kg (%) (food intake; 0-24 h, 30 nmol/kg) | Food intake reduction 24-48 h 3 nmol/kg (%) (food intake; 24-48 h) | Food intake reduction 24-48 h 30 nmol/kg (%) (food intake; 24-48 h, 30 nmol/kg)
37 | 37 |  |  | CC[C@H](C)[C@H](NC(=O)[C@@H]1CCCN1C(=O)CNC(=O)[C@H](Cc1ccccc1)NC(=O)[C@H](CC(N)=O)NC(=O)[C@H](CC(N)=O)NC(=O)[C@H](CO)NC(=O)[C@H](CO)NC(=O)[C@H](Cc1c[nH]cn1)NC(=O)[C@H](Cc1c[nH]cn1)NC(=O)[C@H](CC(C)C)NC(=O)[C@H](Cc1ccccc1)NC(=O)[C@H](CCC(=O)O)NC(=O)[C@H](C)NC(=O)[C@H](CC(C)C)NC(=O)[C@H](CCCNC(=N)N)NC(=O)[C@H](CCC(N)=O)NC(=O)[C@@H](NC(=O)[C@H](C)NC(=O)[C@@H]1CSSC[C@H](NC(=O)[C@H](CCCCN)NC(=O)CC[C@H](NC(=O)CCCCCCCCCCCCCCCCCCC(=O)O)C(=O)O)C(=O)N[C@@H](CC(N)=O)C(=O)N[C@@H]([C@@H](C)O)C(=O)N[C@@H](C)C(=O)N[C@@H]([C@@H](C)O)C(=O)N1)[C@@H](C)O)C(=O)N[C@@H](CC(C)C)C(=O)N1CCC[C@H]1C(=O)N1CCC[C@H]1C(=O)N[C@H](C(=O)N[C@@H](CC(N)=O)C(=O)N[C@H](C(=O)NCC(=O)N[C@@H](CO)C(=O)N[C@@H](Cc1c[nH]cn1)C(=O)N[C@H](C(=O)N[C@@H](Cc1ccc(O)cc1)C(N)=O)[C@@H](C)O)C(C)C)[C@@H](C)O [Example 55, N-alpha-[(S)-4-Carboxy-4-(19-carboxynonadecanoylamino)butyryl]-[Glu14,His17,His35]-pramlintide] ({C20 diacid-γGlu}-KCNTATCATQRLAEFLHHSSNNFGPILPPTNVGSHTY-NH2; disulfide 2-7 (inferred)) | 58 | 88 | 40 | 90
>45 | >45 | >45 | >45 | CC[C@H](C)[C@H](NC(=O)[C@@H]1CCCN1C(=O)CNC(=O)[C@H](Cc1ccccc1)NC(=O)[C@H](CC(N)=O)NC(=O)[C@H](CC(N)=O)NC(=O)[C@H](CO)NC(=O)[C@H](CO)NC(=O)[C@H](Cc1c[nH]cn1)NC(=O)[C@H](Cc1c[nH]cn1)NC(=O)[C@H](CC(C)C)NC(=O)[C@H](Cc1ccccc1)NC(=O)[C@H](CCC(=O)O)NC(=O)[C@H](C)NC(=O)[C@H](CC(C)C)NC(=O)[C@H](CCCNC(=N)N)NC(=O)[C@H](CCC(N)=O)NC(=O)[C@@H](NC(=O)[C@H](C)NC(=O)[C@@H]1CSSC[C@H](NC(=O)[C@H](CCCCN)NC(=O)CC[C@H](NC(=O)CCCCCCCCCCCCCCCCCCC(=O)O)C(=O)O)C(=O)N[C@@H](CC(N)=O)C(=O)N[C@@H]([C@@H](C)O)C(=O)N[C@@H](C)C(=O)N[C@@H]([C@@H](C)O)C(=O)N1)[C@@H](C)O)C(=O)N[C@@H](CC(C)C)C(=O)N1CCC[C@H]1C(=O)N1CCC[C@H]1C(=O)N[C@H](C(=O)N[C@@H](CC(N)=O)C(=O)N[C@H](C(=O)NCC(=O)N[C@@H](CO)C(=O)N[C@@H](CC(N)=O)C(=O)N[C@H](C(=O)N1CCC[C@H]1C(N)=O)[C@@H](C)O)C(C)C)[C@@H](C)O [Example 52, N-alpha-[(S)-4-Carboxy-4-(19-carboxynonadecanoylamino)butyryl]-[Glu14,His17,Pro37]-pramlintide] ({C20 diacid-γGlu}-KCNTATCATQRLAEFLHHSSNNFGPILPPTNVGSNTP-NH2; disulfide 2-7 (inferred); C-terminus assumed) | 62 |  | 74 | 
 | 3 |  |  | CC[C@H](C)[C@H](NC(=O)[C@@H]1CCCN1C(=O)CNC(=O)[C@H](Cc1ccccc1)NC(=O)[C@H](CC(N)=O)NC(=O)[C@H](CC(N)=O)NC(=O)[C@H](CO)NC(=O)[C@H](CO)NC(=O)[C@H](Cc1c[nH]cn1)NC(=O)[C@H](Cc1c[nH]cn1)NC(=O)[C@H](CC(C)C)NC(=O)[C@H](Cc1ccccc1)NC(=O)[C@H](CCC(=O)O)NC(=O)[C@H](C)NC(=O)[C@H](CC(C)C)NC(=O)[C@H](CCCNC(=N)N)NC(=O)[C@H](CCC(N)=O)NC(=O)[C@@H](NC(=O)[C@H](C)NC(=O)[C@@H]1CSSC[C@H](NC(=O)[C@H](CCC(=O)O)NC(=O)CC[C@H](NC(=O)CCCCCCCCCCCCCCCCCCC(=O)O)C(=O)O)C(=O)N[C@@H](CC(N)=O)C(=O)N[C@@H]([C@@H](C)O)C(=O)N[C@@H](C)C(=O)N[C@@H]([C@@H](C)O)C(=O)N1)[C@@H](C)O)C(=O)N[C@@H](CC(C)C)C(=O)N1CCC[C@H]1C(=O)N1CCC[C@H]1C(=O)N[C@H](C(=O)N[C@@H](CC(N)=O)C(=O)N[C@H](C(=O)NCC(=O)N[C@@H](CO)C(=O)N[C@@H](CC(N)=O)C(=O)N[C@H](C(=O)N[C@@H](Cc1ccc(O)cc1)C(N)=O)[C@@H](C)O)C(C)C)[C@@H](C)O [Example 29, N-alpha-[(S)-4-Carboxy-4-(19-carboxynonadecanoylamino)butyryl]-[Glu1,Glu14,His17]-pramlintide] ({C20 diacid-γGlu}-ECNTATCATQRLAEFLHHSSNNFGPILPPTNVGSNTY-NH2; disulfide 2-7 (inferred)) | 15 |  | 5 | 
 | 9.3 |  |  | CC[C@H](C)[C@H](NC(=O)[C@@H]1CCCN1C(=O)CNC(=O)[C@H](Cc1ccccc1)NC(=O)[C@H](CC(N)=O)NC(=O)[C@H](CC(N)=O)NC(=O)[C@H](CO)NC(=O)[C@H](CO)NC(=O)[C@H](Cc1c[nH]cn1)NC(=O)[C@H](Cc1c[nH]cn1)NC(=O)[C@H](CC(C)C)NC(=O)[C@H](Cc1ccccc1)NC(=O)[C@H](CCC(=O)O)NC(=O)[C@H](C)NC(=O)[C@H](CC(C)C)NC(=O)[C@H](CCCNC(=N)N)NC(=O)[C@H](CCC(N)=O)NC(=O)[C@@H](NC(=O)[C@H](C)NC(=O)[C@@H]1CSSC[C@H](NC(=O)CC[C@H](NC(=O)CCCCCCCCCCCCCCCCCCC(=O)O)C(=O)O)C(=O)N[C@@H](CC(N)=O)C(=O)N[C@@H]([C@@H](C)O)C(=O)N[C@@H](C)C(=O)N[C@@H]([C@@H](C)O)C(=O)N1)[C@@H](C)O)C(=O)N[C@@H](CC(C)C)C(=O)N1CCC[C@H]1C(=O)N1CCC[C@H]1C(=O)N[C@H](C(=O)N[C@@H](CC(N)=O)C(=O)N[C@H](C(=O)NCC(=O)N[C@@H](CO)C(=O)N[C@@H](CC(N)=O)C(=O)N[C@H](C(=O)N[C@@H](Cc1ccc(O)cc1)C(N)=O)[C@@H](C)O)C(C)C)[C@@H](C)O [Example 28, N-alpha-[(S)-4-Carboxy-4-(19-carboxynonadecanoylamino)butyryl]-[des1,Glu14,His17]-pramlintide] ({C20 diacid-γGlu}-CNTATCATQRLAEFLHHSSNNFGPILPPTNVGSNTY-NH2; disulfide 1-6 (inferred)) | 39 |  | 36 | 
